{
  "source": "paper PMC11403612",
  "about": "“Preparation and Preclinical Characterization of a Simple Ester for Dual Exogenous Supply of Lactate and Beta-hydroxybutyrate” (Journal of Agricultural and Food Chemistry, 2024)",
  "key": {"[1]": {"assay": "In vitro stability in simulated intestinal fluid", "format": "in vitro ADME", "conditions": "simulated intestinal fluid (SIF) with pancreatin, intestinal enzymes (pancreatin), pH = 6.8", "protocol": "The in vitro stability of LaKe was evaluated following incubation in simulated gastric fluid (SGF), simulated intestinal fluid (SIF), fresh and frozen plasma (rats and humans, respectively), and the presence of hepatocytes (rats and humans) and liver microsomes (rats and humans). At the chosen time points, the mixtures were analyzed by LC-MS/MS to quantify the remaining LaKe and all assays included at least one control compound with known pharmacokinetic properties. […]\ncentrifuged at 4000 rpm, 4℃ for 20 min. 60 μL of supernatant was mixed with 180 μL of purified water for subsequent LC/MS/MS analysis.\nLC-MS/MS Condition: ACQUITY UPLC BEH C18 1.7um 2.1 * 50mm Column (Part No.186002350). Mobile phase: A: 0.1% Formic Acid in Water; B: 0.1% Formic Acid in ACN.\nStability of LaKe in simulated intestinal fluid (SIF)\nPreparation of SIF-solution: 0.136 g KH2PO4 and 0.064 g pancreatin was dissolved H2O to a total volume of solution 20 mL. The pH of the test solution was adjusted to 6.80 ± 0.05.\nProcedure: 2 μL of a 10mg/ml working solution of LaKe in DMSO was spiked into 96-deep-well plates corresponding to timepoints T0, T60, T120, T360 and T1440. Experiments were performed in duplicate. 198 μL of SIF solution was then transferred to the individual wells (except T0) to reach 0.1mg/ml as the final test concentration for each time point (60, 120, 360, 1440 minutes). […]"}, "[2]": {"assay": "Hepatocyte stability of LaKe, human", "format": "in vitro ADME", "conditions": "cryopreserved hepatocytes"}, "[3]": {"system": "rats", "assay": "Behaviour and tolerability observations in extended pharmacokinetics study", "format": "in vivo", "protocol": "Animals (SD rats, both male and female, 7–9 weeks) were individually housed from 24 h before dosing until the end of the study. Food was withdrawn the night before initiation of study; following food withdrawal, animals were maintained on glucose water containing 5% w/v glucose and 1% saline to suppress endogenous ketone production throughout the study. Food was returned 8 h post-test article dosing. Animals were monitored for distress or notable changes in behavior during the study. The animals were euthanized by CO2 inhalation 2 h after the last sample collection time point."}},
  "data": [
    {"smiles": "CC(O)CCOC(=O)C(C)O", "note": "(stereo not drawn) [LaKe, 3-hydroxybutyl 2-hydroxypropanoate]", "values": [
      {"measurement": "half-life at 0.1 mg/ml", "setting": "[1]", "value": "< 2", "unit": "h"},
      {"measurement": "half-life at 0.1 mg/mL", "setting": "[2]", "value": "< 0.5", "unit": "h"},
      {"measurement": "behaviour observations", "setting": "[3]; 12 g/kg, at 2 and 8 h following administration, some of the rats, normalized at 10 h", "value": "slightly reduced activity and a hunched posture"},
      {"measurement": "signs of toxicity", "setting": "[3]; 10 h following administration, any of the doses", "value": "No signs of toxicity or deviation from normal behavior"},
      {"measurement": "behaviour observations", "setting": "[3]; lower doses (1.3 g/kg and 4.1 g/kg), all time points", "value": "normal behavior was observed at all time points"},
      {"measurement": "overall tolerability", "setting": "[3]; rats, oral, up to 12 g/kg", "value": "well tolerated"}
    ]}
  ]
}
